Target: T1, H+/K+-ATPase (Sus scrofa, UniProt P19156)
T1 construct: reaction buffer solution (60 mmol/l Tris-HCl buffer solution, pH 7.4) containing hog gastric vesicle; from tissue; host or cells: hog stomach (gastric vesicles, by centrifugation after Rabon et al. 1988)
Test: Inhibition of proton pump (H+/K+-ATPase) activity in hog gastric vesicles
Assay type: biochemical
Settings: K+ specific H+/K+-ATPase activity, pH 7.4, 37° C. for 40 minutes, malachite green
Protocol: 1) Preparation of Gastric Vesicles
Gastric vesicles were prepared from hog stomach by centrifugation (Edd C. Rabon et al., Preparation of Gastric H^+,K^+-ATPase, Methods in enzymology, vol. 157 Academic Press Inc., (1988), pp. 649-654). The protein contents of the prepared gastric vesicles were quantified with a Bicinchoninic Acid (BCA) kit.
2) Measurement of Effect of Inhibiting Proton Pump (H^+/K^+-ATPase) Activity
The effect of inhibiting proton pump activity by the compound of the present invention was measured in a 96-well plate. In this experiment, K^+ specific H^+/K^+-ATPase activity was calculated based on the difference between H^+/K^+-ATPase activity in the presence of K^+ ions and H^+/K^+-ATPase activity in the absence of K^+ ions. In the 96-well plate, to negative and positive control groups, 0.5% dimethylsulfoxide (DMSO) in buffer was added, and to the test groups, the compound of the present invention was added. All the analyses were conducted at room temperature with the reaction volume of 100 μl. To a reaction buffer solution (60 mmol/l Tris-HCl buffer solution, pH 7.4) containing hog gastric vesicle, DMSO and each concentration of compound were added, and then, 10 μl of a 10 mmol/l adenosine triphosphate tris buffer solution (60 mmol/l Tris-HCl buffer solution, pH 7.4) was added to initiate an enzyme reaction. The enzyme reaction was conducted at 37° C. for 40 minutes, 50 μl of a malachite green solution (0.12% malachite green solution, 5.8% ammonium molybdate and 11% tween 20 were mixed at a ratio of 100:67:2 in 6.2 N sulfuric acid) was added to stop the reaction, and 50 μl of 15.1% sodium citrate was added. During the reaction, the amount of monophosphate (Pi) was measured at 570 nm using micro plate reader (FLUOstar Omega, BMG Company). Inhibition rate (%) was measured from the activity values of the control groups and the activity values of various concentrations of the test compound, and IC50 of the test compound was calculated from each % inhibition value of the compound using Logistic 4-parameter function of Sigmaplot 8.0 program.

T1 sequence (P19156 2-1034 limits assumed): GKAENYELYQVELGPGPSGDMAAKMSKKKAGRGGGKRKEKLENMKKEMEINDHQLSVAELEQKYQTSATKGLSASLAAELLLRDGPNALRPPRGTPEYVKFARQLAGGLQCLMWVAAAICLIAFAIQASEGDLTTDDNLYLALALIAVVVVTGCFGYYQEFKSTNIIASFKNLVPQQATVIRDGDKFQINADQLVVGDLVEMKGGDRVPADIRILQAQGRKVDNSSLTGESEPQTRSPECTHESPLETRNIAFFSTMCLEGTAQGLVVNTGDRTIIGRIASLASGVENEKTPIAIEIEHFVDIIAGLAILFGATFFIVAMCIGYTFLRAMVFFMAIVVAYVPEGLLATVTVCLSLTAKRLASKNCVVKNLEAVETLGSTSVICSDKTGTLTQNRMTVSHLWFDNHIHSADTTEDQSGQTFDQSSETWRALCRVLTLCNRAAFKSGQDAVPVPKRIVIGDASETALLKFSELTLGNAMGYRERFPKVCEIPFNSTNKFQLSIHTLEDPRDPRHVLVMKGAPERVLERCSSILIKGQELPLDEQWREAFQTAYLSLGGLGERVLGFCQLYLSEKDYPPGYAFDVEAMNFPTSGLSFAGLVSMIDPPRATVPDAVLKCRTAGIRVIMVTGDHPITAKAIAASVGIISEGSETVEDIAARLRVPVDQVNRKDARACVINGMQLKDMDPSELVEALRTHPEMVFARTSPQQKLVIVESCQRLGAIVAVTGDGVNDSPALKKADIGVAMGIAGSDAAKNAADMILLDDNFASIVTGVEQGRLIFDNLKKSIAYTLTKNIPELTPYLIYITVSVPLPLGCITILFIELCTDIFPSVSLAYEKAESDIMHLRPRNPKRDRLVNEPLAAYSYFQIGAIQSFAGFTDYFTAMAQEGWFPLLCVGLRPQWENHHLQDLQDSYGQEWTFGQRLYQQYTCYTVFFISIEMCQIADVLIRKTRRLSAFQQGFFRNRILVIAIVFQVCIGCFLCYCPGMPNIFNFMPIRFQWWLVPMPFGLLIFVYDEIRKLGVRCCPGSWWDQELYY
T1 sequence (P18434 whole entry partner): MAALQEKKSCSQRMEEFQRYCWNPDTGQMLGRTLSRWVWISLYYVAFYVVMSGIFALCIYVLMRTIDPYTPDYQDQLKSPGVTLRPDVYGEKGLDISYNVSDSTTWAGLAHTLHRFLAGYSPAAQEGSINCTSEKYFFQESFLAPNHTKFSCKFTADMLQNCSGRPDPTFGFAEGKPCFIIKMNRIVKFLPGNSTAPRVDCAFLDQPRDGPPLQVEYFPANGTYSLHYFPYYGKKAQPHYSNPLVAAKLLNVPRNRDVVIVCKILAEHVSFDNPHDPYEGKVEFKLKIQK

Row | SMILES | IC50 [nM]
1 | CNC1CCc2c1cn(S(=O)(=O)c1cccc(Cl)c1)c2-c1ccsc1 (stereo not shown) [Example 33, 2-((3-chlorophenyl)sulfonyl)-N-methyl-1-(thiophen-3-yl)-2,4,5,6-tetrahydrocyclopenta[c]pyrrol-4-amine] | 320
2 | CNC1CCc2c1cn(S(=O)(=O)c1cccc(Cl)c1)c2-c1cscc1C (stereo not shown) [Example 34, 2-((3-chlorophenyl)sulfonyl)-N-methyl-1-(4-methylthiophen-3-yl)-2,4,5,6-tetrahydrocyclopenta[c]pyrrol-4-amine] | 690
3 | CNC1CCc2c1cn(S(=O)(=O)c1cccc(Cl)c1)c2-c1cc(C)sc1C (stereo not shown) [Example 35, 2-((3-chlorophenyl)sulfonyl)-1-(2,5-dimethylthiophen-3-yl)-N-methyl-2,4,5,6-tetrahydrocyclopenta[c]pyrrol-4-amine] | 840
4 | CNC1CCc2c1cn(S(=O)(=O)c1cccc(Cl)c1)c2-c1cccc(Cl)n1 (stereo not shown) [Example 36, 2-((3-chlorophenyl)sulfonyl)-1-(6-chloropyridin-2-yl)-N-methyl-2,4,5,6-tetrahydrocyclopenta[c]pyrrol-4-amine] | 2540
5 | CNC1CCc2c1cn(S(=O)(=O)c1cccc(Cl)c1)c2-c1cccnc1 (stereo not shown) [Example 37, 2-((3-chlorophenyl)sulfonyl)-N-methyl-1-(pyridin-3-yl)-2,4,5,6-tetrahydrocyclopenta[c]pyrrol-4-amine] | 1490
6 | CNC1CCc2c1cn(S(=O)(=O)c1cccc(Cl)c1)c2-c1cccnc1C(F)(F)F (stereo not shown) [Example 38] | 5820
7 | CNC1CCc2c1cn(S(=O)(=O)c1cccc(Cl)c1)c2-c1ccc(C(F)(F)F)nc1 (stereo not shown) [Example 39] | 2510
8 | CNC1CCc2c1cn(S(=O)(=O)c1cccc(Cl)c1)c2-c1ccc(N2CCCC2)nc1 (stereo not shown) [Example 40] | 7690
9 | CNC1CCc2c1cn(S(=O)(=O)c1cccc(Cl)c1)c2-c1ccc(N2CCOCC2)nc1 (stereo not shown) [Example 41, 2-((3-chlorophenyl)sulfonyl)-N-methyl-1-(6-morpholinopyridin-3-yl)-2,4,5,6-tetrahydrocyclopenta[c]pyrrol-4-amine] | 3880
10 | CNC1CCc2c1cn(S(=O)(=O)c1cccc(Cl)c1)c2-c1ccncc1 (stereo not shown) [Example 42, 2-((3-chlorophenyl)sulfonyl)-N-methyl-1-(pyridin-4-yl)-2,4,5,6-tetrahydrocyclopenta[c]pyrrol-4-amine] | 5430
11 | CNC1CCc2c1cn(S(=O)(=O)c1ccccc1)c2-c1ccccc1F (stereo not shown) [Example 43, 1-(2-fluorophenyl)-N-methyl-2-(phenylsulfonyl)-2,4,5,6-tetrahydrocyclopenta[c]pyrrol-4-amine] | 430
12 | CNC1CCc2c1cn(S(=O)(=O)c1ccccc1)c2-c1ccc(C)cc1F (stereo not shown) [Example 44, 1-(2-fluoro-4-methylphenyl)-N-methyl-2-(phenylsulfonyl)-2,4,5,6-tetrahydrocyclopenta[c]pyrrol-4-amine] | 650
13 | CNC1CCc2c1cn(S(=O)(=O)c1ccccc1)c2-c1cc(Cl)ccc1Cl (stereo not shown) [Example 45, 1-(2,5-dichlorophenyl)-N-methyl-2-(phenylsulfonyl)-2,4,5,6-tetrahydrocyclopenta[c]pyrrol-4-amine] | 550
14 | CNC1CCc2c1cn(S(=O)(=O)c1ccccc1OC)c2-c1ccccc1F (stereo not shown) [Example 46, 1-(2-fluorophenyl)-2-((2-methoxyphenyl)sulfonyl)-N-methyl-2,4,5,6-tetrahydrocyclopenta[c]pyrrol-4-amine] | 3270
15 | CNC1CCc2c1cn(S(=O)(=O)c1cccc(F)c1)c2-c1ccc(C)cc1F (stereo not shown) [Example 47, 1-(2-fluoro-4-methylphenyl)-2-((3-fluorophenyl)sulfonyl)-N-methyl-2,4,5,6-tetrahydrocyclopenta[c]pyrrol-4-amine] | 470
16 | CNC1CCc2c1cn(S(=O)(=O)c1ccccc1Cl)c2-c1ccc(C)cc1F (stereo not shown) [Example 48, 2-((2-chlorophenyl)sulfonyl)-1-(2-fluoro-4-methylphenyl)-N-methyl-2,4,5,6-tetrahydrocyclopenta[c]pyrrol-4-amine] | 1000
17 | CNC1CCc2c1cn(S(=O)(=O)c1ccccc1Cl)c2-c1ccc(F)cc1C (stereo not shown) [Example 49, 2-((2-chlorophenyl)sulfonyl)-1-(4-fluoro-2-methylphenyl)-N-methyl-2,4,5,6-tetrahydrocyclopenta[c]pyrrol-4-amine] | 2170
18 | CNC1CCc2c1cn(S(=O)(=O)c1ccccc1Cl)c2-c1cc(Cl)ccc1Cl (stereo not shown) [Example 50, 2-((2-chlorophenyl)sulfonyl)-1-(2,5-dichlorophenyl)-N-methyl-2,4,5,6-tetrahydrocyclopenta[c]pyrrol-4-amine] | 1050
19 | CNC1CCc2c1cn(S(=O)(=O)c1cccc(F)c1)c2-c1cc(Cl)ccc1Cl (stereo not shown) [Example 51, 1-(2,5-dichlorophenyl)-2-((3-fluorophenyl)sulfonyl)-N-methyl-2,4,5,6-tetrahydrocyclopenta[c]pyrrol-4-amine] | 650
20 | CNC1CCc2c1cn(S(=O)(=O)c1cccc(C)c1)c2-c1ccc(C)cc1F (stereo not shown) [Example 52, 1-(2-fluoro-4-methylphenyl)-N-methyl-2-(m-tolylsulfonyl)-2,4,5,6-tetrahydrocyclopenta[c]pyrrol-4-amine] | 350
21 | CNC1CCc2c1cn(S(=O)(=O)c1cccc(C)c1)c2-c1cc(Cl)ccc1Cl (stereo not shown) [Example 53, 1-(2,5-dichlorophenyl)-N-methyl-2-(m-tolylsulfonyl)-2,4,5,6-tetrahydrocyclopenta[c]pyrrol-4-amine] | 770
22 | CNC1CCc2c1cn(S(=O)(=O)c1cccc(OC)c1)c2-c1ccc(C)cc1F (stereo not shown) [Example 54, 1-(2-fluoro-4-methylphenyl)-2-((3-methoxyphenyl)sulfonyl)-N-methyl-2,4,5,6-tetrahydrocyclopenta[c]pyrrol-4-amine] | 410
23 | CNC1CCc2c1cn(S(=O)(=O)c1cccc(OC)c1)c2-c1cc(Cl)ccc1Cl (stereo not shown) [Example 55, 1-(2,5-dichlorophenyl)-2-((3-methoxyphenyl)sulfonyl)-N-methyl-2,4,5,6-tetrahydrocyclopenta[c]pyrrol-4-amine] | 590
24 | CNC1CCc2c1cn(S(=O)(=O)c1cccc(N(C)C)c1)c2-c1ccccc1F (stereo not shown) [Example 56, 2-((3-(dimethylamino)phenyl)sulfonyl)-1-(2-fluorophenyl)-N-methyl-2,4,5,6-tetrahydrocyclopenta[c]pyrrol-4-amine] | 1720
25 | CNC1CCc2c1cn(S(=O)(=O)c1cccc(OC(F)F)c1)c2-c1ccccc1F (stereo not shown) [Example 57, 2-((3-(difluoromethoxy)phenyl)sulfonyl)-1-(2-fluorophenyl)-N-methyl-2,4,5,6-tetrahydrocyclopenta[c]pyrrol-4-amine] | 420
26 | CNC1CCc2c1cn(S(=O)(=O)c1cccc(C(=O)N3CCOCC3)c1)c2-c1ccccc1F (stereo not shown) [Example 58, (3-((1-(2-fluorophenyl)-4-(methylamino)-5,6-dihydrocyclopenta[c]pyrrol-2(4H)-yl)sulfonyl)phenyl)(morpholino)methanone] | 5780
27 | CNC1CCc2c1cn(S(=O)(=O)c1ccc(C)cc1)c2-c1ccccc1F (stereo not shown) [Example 59, 1-(2-fluorophenyl)-N-methyl-2-tosyl-2,4,5,6-tetrahydrocyclopenta[c]pyrrol-4-amine] | 1000
28 | CNC1CCc2c1cn(S(=O)(=O)c1ccc(F)cc1)c2-c1ccc(C)cc1F (stereo not shown) [Example 60, 1-(2-fluoro-4-methylphenyl)-2-((4-fluorophenyl)sulfonyl)-N-methyl-2,4,5,6-tetrahydrocyclopenta[c]pyrrol-4-amine] | 420
